Test results taken from ChEMBL document CHEMBL1938343, “Lead optimisation of selective non-zinc binding inhibitors of MMP13. Part 2” (Bioorg Med Chem Lett, 2012).

What was measured:
Collagenase 3 = Collagenase 3 (Homo sapiens, UniProt P45452); assay: Inhibition of recombinant human MMP13 using Mca-Pro-cyclohexyl-Ala-Gly-Nva-His-Ala- Dap(Dnp)-NH2 as substrate by fluorometric analysis; conditions: read-out: pIC50 (converted)
[1] = target: 72 kDa type IV collagenase (Homo sapiens, UniProt P08253); assay: Inhibition of MMP2 using Mca-Pro-cyclohexyl-Ala-Gly-Nva-His-Ala- Dap(Dnp)-NH2 as substrate by fluorometric analysis; conditions: read-out: pIC50 (converted)
72 kDa type IV collagenase, sequence (P08253 whole entry): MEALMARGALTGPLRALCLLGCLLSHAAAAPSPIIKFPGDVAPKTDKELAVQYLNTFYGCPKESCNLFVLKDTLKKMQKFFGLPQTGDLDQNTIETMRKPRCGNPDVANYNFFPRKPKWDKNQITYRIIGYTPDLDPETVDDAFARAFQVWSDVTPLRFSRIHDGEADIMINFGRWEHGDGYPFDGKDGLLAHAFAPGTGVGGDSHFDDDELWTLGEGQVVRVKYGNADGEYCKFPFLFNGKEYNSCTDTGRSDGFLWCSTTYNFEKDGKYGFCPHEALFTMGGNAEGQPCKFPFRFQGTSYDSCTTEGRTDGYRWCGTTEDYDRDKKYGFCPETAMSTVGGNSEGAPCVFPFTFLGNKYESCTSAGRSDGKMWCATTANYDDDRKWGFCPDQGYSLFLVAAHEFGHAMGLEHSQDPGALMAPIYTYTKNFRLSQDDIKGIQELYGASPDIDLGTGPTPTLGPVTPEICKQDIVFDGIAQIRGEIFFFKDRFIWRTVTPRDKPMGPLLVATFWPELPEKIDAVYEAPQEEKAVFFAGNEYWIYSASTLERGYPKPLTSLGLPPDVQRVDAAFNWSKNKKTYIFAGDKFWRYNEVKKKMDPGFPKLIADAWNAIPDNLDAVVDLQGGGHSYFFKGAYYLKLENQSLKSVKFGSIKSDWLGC

[2] = Intrinsic clearance in human microsomes; assay type: ADME, Microsome
[3] = target: Matrix metalloproteinase-9 (Homo sapiens, UniProt P14780); assay: Inhibition of MMP9 using Mca-Pro-cyclohexyl-Ala-Gly-Nva-His-Ala- Dap(Dnp)-NH2 as substrate by fluorometric analysis; conditions: read-out: pIC50 (converted)
Matrix metalloproteinase-9, sequence (P14780 whole entry): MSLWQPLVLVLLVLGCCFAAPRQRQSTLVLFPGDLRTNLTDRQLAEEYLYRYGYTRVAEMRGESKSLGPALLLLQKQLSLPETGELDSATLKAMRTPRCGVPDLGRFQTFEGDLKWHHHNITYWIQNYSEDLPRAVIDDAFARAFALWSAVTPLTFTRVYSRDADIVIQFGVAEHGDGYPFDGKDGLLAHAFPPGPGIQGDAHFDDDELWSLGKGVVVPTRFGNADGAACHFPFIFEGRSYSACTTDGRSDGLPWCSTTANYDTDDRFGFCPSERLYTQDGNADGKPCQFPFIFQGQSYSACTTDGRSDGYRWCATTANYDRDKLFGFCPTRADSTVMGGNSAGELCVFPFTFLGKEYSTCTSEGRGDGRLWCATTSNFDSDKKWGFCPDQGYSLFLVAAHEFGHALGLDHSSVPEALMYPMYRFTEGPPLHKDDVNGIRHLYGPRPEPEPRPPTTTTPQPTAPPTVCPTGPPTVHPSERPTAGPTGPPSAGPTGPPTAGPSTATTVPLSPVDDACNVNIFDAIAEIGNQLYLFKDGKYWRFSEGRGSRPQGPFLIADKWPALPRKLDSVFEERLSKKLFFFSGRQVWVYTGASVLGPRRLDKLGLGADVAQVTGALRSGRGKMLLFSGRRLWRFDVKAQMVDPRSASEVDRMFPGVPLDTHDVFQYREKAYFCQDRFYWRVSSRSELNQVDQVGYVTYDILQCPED

[4] = target: Macrophage metalloelastase (Homo sapiens, UniProt P39900); assay: Inhibition of MMP12 using Mca-Pro-cyclohexyl-Ala-Gly-Nva-His-Ala- Dap(Dnp)-NH2 as substrate by fluorometric analysis; conditions: read-out: pIC50 (converted)
Macrophage metalloelastase, sequence (P39900 whole entry): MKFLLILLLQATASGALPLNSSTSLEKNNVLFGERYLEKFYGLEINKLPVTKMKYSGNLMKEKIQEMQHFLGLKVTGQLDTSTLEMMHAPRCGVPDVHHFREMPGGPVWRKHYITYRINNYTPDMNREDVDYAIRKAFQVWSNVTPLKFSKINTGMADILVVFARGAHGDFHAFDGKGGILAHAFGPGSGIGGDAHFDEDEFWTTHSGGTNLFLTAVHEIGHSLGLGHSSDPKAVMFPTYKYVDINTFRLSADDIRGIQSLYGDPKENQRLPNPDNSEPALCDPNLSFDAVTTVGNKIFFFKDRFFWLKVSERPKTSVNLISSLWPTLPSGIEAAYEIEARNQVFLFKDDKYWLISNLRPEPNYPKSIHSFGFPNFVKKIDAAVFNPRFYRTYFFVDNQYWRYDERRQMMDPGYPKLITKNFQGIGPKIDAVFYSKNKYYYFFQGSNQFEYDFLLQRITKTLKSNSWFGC

[5] = target: Matrix metalloproteinase-14 (Homo sapiens, UniProt P50281); assay: Inhibition of MMP14 using Mca-Pro-cyclohexyl-Ala-Gly-Nva-His-Ala- Dap(Dnp)-NH2 as substrate by fluorometric analysis; conditions: read-out: pIC50 (converted)
[6] = Intrinsic clearance in Sprague-Dawley rat hepatocytes assessed per 10^6 cells; assay type: ADME, cell-based, Hepatocyte; conditions: Sprague-Dawley, read-out: CLH
[7] = Apparent permeability across apical to basolateral side in human Caco2 cells at 10 uM; assay type: ADME, cell-based; conditions: Caco-2
[8] = Apparent permeability across basolateral to apical side in human Caco2 cells at 10 uM; assay type: ADME, cell-based; conditions: Caco-2
[9] = Oral bioavailability in rat; assay type: ADME, organism-based; conditions: in vivo
[10] = target: MMP-2/MMP-13 (Homo sapiens) (UniProt P08253+P45452); assay: Selectivity ratio of pIC50 for MMP2 to pIC50 for recombinant human MMP13
MMP-2/MMP-13 (Homo sapiens), sequence (P08253 whole entry, looked up, other chains not shown): as the sequence (P08253 whole entry) above

Structure (SMILES) | IC50 (Collagenase 3) [nM] | IC50 [1] [µM] | microsomal CLint [2] [µL/min/mg] | also measured
O=C(NCc1ccc(F)cc1)c1ccc(Oc2ccc(C#C[C@]3(O)CN4CCC3CC4)cc2)cc1 | 100 | 6.31 | – | –
O=C(NCc1ccnc2ccccc12)c1ccc(Oc2ccc(C#C[C@]3(O)CN4CCC3CC4)cc2)cc1 | 20 | 2 | 26.1 | –
OCc1ccc(Oc2ccc(C#C[C@]3(O)CN4CCC3CC4)cc2)cc1 | > 10000 | – | – | –
O=C(NC1CCS(=O)(=O)CC1)c1ccc(Oc2ccc(C#C[C@]3(O)CN4CCC3CC4)cc2)cc1 | 100 | > 10 | 2.5 | IC50 [3]: > 10 µM; IC50 [4]: > 10 µM; IC50 [5]: > 10 µM
CNC(=O)N1CCC(NC(=O)c2ccc(Oc3ccc(C#C[C@]4(O)CN5CCC4CC5)cc3)cc2)CC1 | 50.1 | 3.98 | < 2 | IC50 [3]: > 10 µM; IC50 [4]: > 10 µM; IC50 [5]: > 10 µM
O=C(Nc1ccccn1)c1ccc(Oc2ccc(C#C[C@]3(O)CN4CCC3CC4)cc2)cc1 | 316 | > 10 | < 2 | –
CS(=O)(=O)N1CCC(NC(=O)c2ccc(Oc3ccc(C#C[C@]4(O)CN5CCC4CC5)cc3)cc2)CC1 | 50.1 | 7.94 | 2.9 | IC50 [3]: > 10 µM; IC50 [4]: > 10 µM; IC50 [5]: > 10 µM; hepatocyte CLint [6]: < 2 µL/min/1e6 cells
O=C(O)c1ccc(Oc2ccc(C#C[C@]3(O)CN4CCC3CC4)cc2)cc1 | 5010 | – | – | –
COc1ccc(CNC(=O)c2ccc(Oc3ccc(C#C[C@]4(O)CN5CCC4CC5)cc3)cc2)cc1OC | 10 | 1.26 | 2.7 | –
O=C(NC1CCN(C(=O)C2CC2)CC1)c1ccc(Oc2ccc(C#C[C@]3(O)CN4CCC3CC4)cc2)cc1 | 25.1 | 6.31 | 3.7 | IC50 [3]: > 10 µM; IC50 [4]: > 10 µM; IC50 [5]: > 10 µM
CC[C@@H](C)NC(=O)c1ccc(Oc2ccc(C#C[C@]3(O)CN4CCC3CC4)cc2)cc1 | 50.1 | 6.31 | 8.9 | –
Cc1cc(CN(C)C(=O)c2ccc(Oc3ccc(C#C[C@]4(O)CN5CCC4CC5)cc3)cc2)on1 | 79.4 | 7.94 | 2.7 | Papp A→B at 10 µM [7]: 8.2 ×10⁻⁶ cm/s; Papp B→A at 10 µM [8]: 53 ×10⁻⁶ cm/s; bioavailability [9]: 3%
O=C(NCC1CCCCC1)c1ccc(Oc2ccc(C#C[C@]3(O)CN4CCC3CC4)cc2)cc1 | 100 | 5.01 | – | –
CS(=O)(=O)Nc1ccc(Oc2ccc(C#C[C@]3(O)CN4CCC3CC4)cc2)cc1 | 2510 | – | – | –
NC(=O)c1ccc(Oc2ccc(C#C[C@]3(O)CN4CCC3CC4)cc2)cc1 | 631 | – | – | –
COc1cccc(CNC(=O)c2ccc(Oc3ccc(C#C[C@]4(O)CN5CCC4CC5)cc3)cc2)c1 | 79.4 | > 10 | 10.9 | –
CS(=O)(=O)Oc1cccc(CNC(=O)c2ccc(Oc3ccc(C#C[C@]4(O)CN5CCC4CC5)cc3)cc2)c1 | 63.1 | 7.94 | 8.6 | –
O=C(NCc1ccncc1)c1ccc(Oc2ccc(C#C[C@]3(O)CN4CCC3CC4)cc2)cc1 | – | 6.31 | 10.2 | –
C[C@@H](NC(=O)c1ccc(Oc2ccc(C#C[C@]3(O)CN4CCC3CC4)cc2)cc1)c1ccncc1 | 12.6 | 3.98 | 18.8 | Ratio pIC50 [10]: > 300

Structure (SMILES) | IC50 (Collagenase 3) [nM] | IC50 [1] [µM] | microsomal CLint [2] [µL/min/mg] | also measured
C[S+]([O-])c1ccc(Oc2ccc(C#C[C@]3(O)CN4CCC3CC4)cc2)cc1 (stereo partly specified) | 398 | – | – | –
O=C(NCc1ccccc1)c1ccc(Oc2ccc(C#C[C@]3(O)CN4CCC3CC4)cc2)cc1 | 63.1 | 7.94 | < 2 | –
CC(=O)Nc1ccc(Oc2ccc(C#C[C@]3(O)CN4CCC3CC4)cc2)cc1 | > 10000 | – | – | –
CS(=O)(=O)c1cccc(CNC(=O)c2ccc(Oc3ccc(C#C[C@]4(O)CN5CCC4CC5)cc3)cc2)c1 | 31.6 | 7.94 | 12.5 | –
CCOC(=O)c1ccc(Oc2ccc(C#C[C@]3(O)CN4CCC3CC4)cc2)cc1 | 1000 | – | – | –
CNS(=O)(=O)c1ccc(Oc2ccc(C#C[C@]3(O)CN4CCC3CC4)cc2)cc1 | 100 | – | – | –
CC(C)NC(=O)c1ccc(Oc2ccc(C#C[C@]3(O)CN4CCC3CC4)cc2)cc1 | 100 | > 10 | – | –
COc1cc(CNC(=O)c2ccc(Oc3ccc(C#C[C@]4(O)CN5CCC4CC5)cc3)cc2)cc(OC)c1 | 50.1 | 7.94 | 4.8 | –
COc1ccc(CNC(=O)c2ccc(Oc3ccc(C#C[C@]4(O)CN5CCC4CC5)cc3)cc2)c(OC)c1 | 39.8 | 6.31 | 16.1 | –
O=C(NC1CCCCC1)c1ccc(Oc2ccc(C#C[C@]3(O)CN4CCC3CC4)cc2)cc1 | 25.1 | > 10 | 2.9 | –
CONC(=O)c1ccc(Oc2ccc(C#C[C@]3(O)CN4CCC3CC4)cc2)cc1 | 2510 | – | – | –
O=C(NC1CCN(C2CC2)CC1)c1ccc(Oc2ccc(C#C[C@]3(O)CN4CCC3CC4)cc2)cc1 | 79.4 | 7.94 | 4.7 | IC50 [3]: > 10 µM; IC50 [4]: > 10 µM; IC50 [5]: > 10 µM
CS(=O)(=O)c1ccc(Oc2ccc(C#C[C@]3(O)CN4CCC3CC4)cc2)cc1 | 316 | – | – | –
CN(C)C(=O)c1ccc(Oc2ccc(C#C[C@]3(O)CN4CCC3CC4)cc2)cc1 | 1580 | – | – | –
COc1ccc(CNC(=O)c2ccc(Oc3ccc(C#C[C@]4(O)CN5CCC4CC5)cc3)cc2)nc1 | 31.6 | > 10 | 5.6 | Ratio pIC50 [10]: > 300
CC(=O)N1CCC(NC(=O)c2ccc(Oc3ccc(C#C[C@]4(O)CN5CCC4CC5)cc3)cc2)CC1 | 39.8 | 5.01 | 2.5 | IC50 [3]: > 10 µM; IC50 [4]: > 10 µM; IC50 [5]: > 10 µM; hepatocyte CLint [6]: < 2 µL/min/1e6 cells
O=C(NC1CCS(=O)(=O)C1)c1ccc(Oc2ccc(C#C[C@]3(O)CN4CCC3CC4)cc2)cc1 (stereo partly specified) | 79.4 | 7.94 | < 2 | IC50 [3]: > 10 µM; IC50 [4]: > 10 µM; IC50 [5]: > 10 µM; hepatocyte CLint [6]: < 2 µL/min/1e6 cells
N#Cc1cccc(CNC(=O)c2ccc(Oc3ccc(C#C[C@]4(O)CN5CCC4CC5)cc3)cc2)c1 | 63.1 | > 10 | 9.9 | –
CN(Cc1ccncc1)C(=O)c1ccc(Oc2ccc(C#C[C@]3(O)CN4CCC3CC4)cc2)cc1 | 251 | > 10 | – | –
